In patent US11124510B2, “Alkyl chain modified imidazoquinoline TLR7/8 agonist compounds and uses thereof” (Dynavax Technologies Corporation, priority 2017, dated 2021):

Tests used:
TLR7 = TLR7 (Homo sapiens (Human), UniProt Q9NYK1); experiment: TLR7 agonist bioactivity: induction of IFNα protein in pDC-enriched PBMC cultures (ELISA, 24 h); assay type: cell-based; settings: for TLR7 (% of Compound No. 63-00 EC50 Value): EC50 expressed as percentage of EC50 of Compound No. 63-00; for EC50: IFNα induction, pDC-enriched human PBMC, 24 hours; for fold loss of TLR7 agonist potency compared to Compound No. 63-00 (IMDQ): less potent than IMDQ
Experimental: Plasmacytoid dendritic cell (pDC)—enriched peripheral blood mononuclear cells (PBMCs) were prepared from the blood of a series of human donors (3-5 donors/experiment). PBMCs were isolated using Ficoll-Paque Premium® (GE Healthcare, Chicago Ill.) using methods well known to those in the art. pDCs were magnetically isolated from the total recovered PBMC population using CD304 (BDCA-4/Neuropilin-1) microbeads (Miltenyi Biotec, San Diego Calif.), according to the manufacturer's instructions. Isolated pDCs were then added back to between 1 and 2×10^8 of the corresponding donor's PBMCs for relative enrichment of this cell type. […] Culture supernatants were collected and interferon-alpha (IFNα) protein levels were measured by ELISA (MabTech, Cincinnati Ohio), according to the manufacturer's instructions.

serum IL-6 and IL-12p40 = experiment: In vivo systemic immune activation assay: serum IL-6 and IL-12p40 by ELISA after single subcutaneous injection; design: species or system mice; settings: 5 μg subcutaneously in footpad, 95% sesame oil/5% ethanol, ± SEM
Experimental: Small molecule TLR7 and TLR7/8 agonists derived from the 1H-imidazo[4,5-c]quinoline privileged template (see e.g., Imiquimod, Resiquimod) are known to rapidly distribute to the systemic compartment following intratumoral, subcutaneous, or intramuscular injection. Broad systemic distribution of these agonist compounds in wild-type mice induces TLR7-dependent cytokine responses, primarily in spleen and liver cells, which can subsequently be detected in the serum within 3-6 hours. The rapid increase in serum cytokine biomarkers (e.g., IL-6 and IL-12p40) can be used to assess the kinetics of systemic distribution of a locally administered TLR agonist.
The kinetics of distribution of pharmaceutical compositions comprised of Compound Nos. 63-00, 63-17, or 63-10 formulated in 95% sesame oil/5% ethanol (v/v) were assessed following a single subcutaneous injection in wild-type mice. All in vivo procedures were conducted in accordance with approved Institutional Animal Care and Use Committee (IACUC) protocols. The animals were housed in a facility that is accredited by the Association for Accreditation and Laboratory Animal Care (AALAC, Frederick Md.). Wild-type female BALB/c mice (15-20 gm) were obtained from Envigo (Hayward, Calif.) and acclimated for 2-3 days prior to use.
The pharmaceutical compositions were made with the three compounds, at a final concentration of 200 μg/mL, in a manner similar to that described in Example B2-1. At T=0, groups of 3 mice were anesthetized with 1% isoflurane and injected subcutaneously in the right footpad with 5 μg of each of the three compounds, or a vehicle control, in 25 uL of 95% sesame oil/5% ethanol (v/v). Then, at T=3, 6, and 24 hours, three animals from each group were anesthetized with 1% isoflurane to facilitate blood collection by cardiac puncture. Samples were processed to serum, and stored at −20° C. for further analysis.

CT26 colon carcinoma [1] = experiment: Anti-tumor efficacy in combination with anti-PD-1 antibody in dual flank CT26 colon carcinoma-bearing mice; assay type: in vivo; settings: for tumor growth inhibition in the injected tumor (right flank) compared to the anti-PD-1 treatment alone / tumor growth inhibition in the distal tumor (left flank) compared to the anti-PD-1 treatment alone: 5,000 ng single intratumoral dose day 14, in combination with anti-PD-1; for tumor growth inhibition in the distal tumor (left flank) compared to the anti-PD-1 treatment alone: day 29; for injected tumor growth inhibition, difference from the anti-PD-1 treatment control at day 29: 5,000 ng single intratumoral dose, in combination with anti-PD-1, Kruskall-Wallis/Dunn
Experimental: All in vivo procedures were conducted in accordance with approved IACUC protocols. The animals were housed in a facility that is accredited by the AALAC. Wild-type female Balb/c mice (15-20 g) were obtained from Envigo (Hayward, Calif.) and acclimated for 2-3 days prior to use.
The pharmaceutical compositions were made using Compound No. 63-10 or 63-33 at final concentrations of 50,000 ng/mL in a manner similar to that described for Example B2-1. […] On day 0, mice were anesthetized with 1% isoflurane, and 80,000 CT26 tumor cells in 200 uL of RMPI-1640 culture media plus 2.5% fetal bovine serum were injected subcutaneously in both the right and left flanks. Tumors (left and right) were allowed to grow until day 8, when the right and left flank tumor sizes had reached approximately 35 mm^3, at which point mice were injected intraperitoneally with 250 μg of anti-PD-1 antibody formulated in phosphate buffered saline or a phosphate buffered saline vehicle control. The anti-PD-1 treatments were repeated on experimental days 12, 15, 19, 22, and 26. On experimental day 14, when the right (injected) and left (distal) flank tumors had reached approximately 100 mm^3, mice were randomized into treatment groups. […] Tumor sizes were measured twice weekly from days 14 through day 29 with calipers, with tumor volumes calculated using the formula: length, multiplied by width, multiplied by width, divided by 2.

TLR8 = TLR8 (Homo sapiens (Human), UniProt Q9NR97); experiment: TLR8 agonist bioactivity: induction of TNFα protein in monocyte cultures (ELISA, 24 h); assay type: cell-based; settings: for EC50: TNFα induction, human monocytes, 24 hours; for fold increase of TLR8 agonist potency compared to Compound No. 63-00 (IMDQ): more potent than IMDQ; for TLR8 (% of Compound No. 63-00 EC50 Value): EC50 expressed as percentage of EC50 of Compound No. 63-00
Experimental: Monocytes were magnetically isolated from PBMCs, prepared as described above, following labeling with CD14 microbeads (Miltenyi Biotec, San Diego Calif.), according to the manufacturer's instructions. […] Culture supernatants were collected and tumor necrosis factor alpha (TNFα) protein levels were measured by ELISA (MabTech, Cincinnati Ohio), according to the manufacturer's instructions.

CT26 colon carcinoma [2] = experiment: Anti-tumor efficacy, repeated intratumoral dosing in CT26 colon carcinoma-bearing wild-type mice; assay type: in vivo; settings: 0.5-20 μg in 95% sesame oil/5% ethanol
Experimental: The effect of repeated weekly doses of intratumorally delivered pharmaceutical compositions comprised of Compound No. 63-10, 63-18, or 63-33 formulated in 95% sesame oil/5% ethanol (v/v) on tumor growth inhibition was assessed in syngeneic CT26 colon carcinoma-bearing Balb/c mice. All in vivo procedures were conducted in accordance with approved Institutional Animal Care and Use Committee (IACUC) protocols. The animals were housed in a facility that is accredited by the Association for Accreditation and Laboratory Animal Care (AALAC, Frederick, Md.). Wild-type female Balb/c mice (15-20 gm) were obtained from Envigo (Hayward, Calif.) and acclimated for 2-3 days prior to use.
The pharmaceutical compositions were made with the three compounds at final concentrations of 5, 50, and 200 μg/mL in a manner similar to that described in Example B2-1. […] On day 0, mice were anesthetized with 1% isoflurane and 80,000 CT26 tumor cells in 200 uL of RMPI-1640 culture media plus 2.5% fetal bovine serum were injected subcutaneously in the right flank. Tumors were allowed to grow until they were ˜35 mm^3, at which point animals were assigned to groups to begin treatment. Mice were injected weekly for 4 weeks intratumorally with 100 uL of a pharmaceutical composition comprising 20, 5, or 0.5 μgs of Compound No. 63-10, or 20 or 5 μgs of Compound Nos. 63-18, or 63-33 formulated in 95% sesame oil/5% ethanol (v/v), or a vehicle control, twice weekly for 3 weeks (experimental days 9, 12, 16, 19, 23, and 26). The TLR9 CpG agonist was injected intratumorally with 100 μL of a pharmaceutical composition comprised of 50 μgs of compound formulated in phosphate buffered saline on the same dosing schedule. Tumor sizes were measured twice weekly from days 8 through day 30 with calipers, with tumor volumes calculated using the formula: length, multiplied by width, multiplied by width, divided by 2.

TLR8, sequence (Q9NR97 27-1041): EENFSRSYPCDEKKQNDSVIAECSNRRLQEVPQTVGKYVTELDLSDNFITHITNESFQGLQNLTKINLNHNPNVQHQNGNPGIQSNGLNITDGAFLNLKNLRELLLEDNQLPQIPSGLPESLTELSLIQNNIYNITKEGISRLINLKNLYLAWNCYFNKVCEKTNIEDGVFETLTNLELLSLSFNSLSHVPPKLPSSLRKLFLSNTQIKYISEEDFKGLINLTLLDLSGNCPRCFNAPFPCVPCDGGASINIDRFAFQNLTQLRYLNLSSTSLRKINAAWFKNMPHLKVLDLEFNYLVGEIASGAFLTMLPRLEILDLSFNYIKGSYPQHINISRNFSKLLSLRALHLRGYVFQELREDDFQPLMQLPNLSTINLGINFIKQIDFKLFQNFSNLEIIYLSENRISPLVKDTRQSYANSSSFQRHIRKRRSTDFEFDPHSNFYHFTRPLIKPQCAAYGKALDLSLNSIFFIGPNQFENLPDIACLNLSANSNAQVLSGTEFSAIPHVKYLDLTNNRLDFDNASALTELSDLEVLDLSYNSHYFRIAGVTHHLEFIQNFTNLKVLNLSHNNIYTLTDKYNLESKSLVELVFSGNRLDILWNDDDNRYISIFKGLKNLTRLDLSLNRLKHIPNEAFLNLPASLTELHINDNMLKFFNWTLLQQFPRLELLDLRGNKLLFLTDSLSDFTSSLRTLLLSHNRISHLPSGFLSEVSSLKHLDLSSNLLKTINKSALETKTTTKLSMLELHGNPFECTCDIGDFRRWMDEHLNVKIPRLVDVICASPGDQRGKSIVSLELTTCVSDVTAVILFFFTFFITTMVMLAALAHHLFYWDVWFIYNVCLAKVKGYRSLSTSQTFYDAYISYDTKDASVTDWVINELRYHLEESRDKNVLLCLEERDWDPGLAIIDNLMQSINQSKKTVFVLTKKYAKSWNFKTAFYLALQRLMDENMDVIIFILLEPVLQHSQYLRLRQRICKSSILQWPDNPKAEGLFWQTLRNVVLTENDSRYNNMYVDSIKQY
TLR7, sequence (Q9NYK1 27-1049): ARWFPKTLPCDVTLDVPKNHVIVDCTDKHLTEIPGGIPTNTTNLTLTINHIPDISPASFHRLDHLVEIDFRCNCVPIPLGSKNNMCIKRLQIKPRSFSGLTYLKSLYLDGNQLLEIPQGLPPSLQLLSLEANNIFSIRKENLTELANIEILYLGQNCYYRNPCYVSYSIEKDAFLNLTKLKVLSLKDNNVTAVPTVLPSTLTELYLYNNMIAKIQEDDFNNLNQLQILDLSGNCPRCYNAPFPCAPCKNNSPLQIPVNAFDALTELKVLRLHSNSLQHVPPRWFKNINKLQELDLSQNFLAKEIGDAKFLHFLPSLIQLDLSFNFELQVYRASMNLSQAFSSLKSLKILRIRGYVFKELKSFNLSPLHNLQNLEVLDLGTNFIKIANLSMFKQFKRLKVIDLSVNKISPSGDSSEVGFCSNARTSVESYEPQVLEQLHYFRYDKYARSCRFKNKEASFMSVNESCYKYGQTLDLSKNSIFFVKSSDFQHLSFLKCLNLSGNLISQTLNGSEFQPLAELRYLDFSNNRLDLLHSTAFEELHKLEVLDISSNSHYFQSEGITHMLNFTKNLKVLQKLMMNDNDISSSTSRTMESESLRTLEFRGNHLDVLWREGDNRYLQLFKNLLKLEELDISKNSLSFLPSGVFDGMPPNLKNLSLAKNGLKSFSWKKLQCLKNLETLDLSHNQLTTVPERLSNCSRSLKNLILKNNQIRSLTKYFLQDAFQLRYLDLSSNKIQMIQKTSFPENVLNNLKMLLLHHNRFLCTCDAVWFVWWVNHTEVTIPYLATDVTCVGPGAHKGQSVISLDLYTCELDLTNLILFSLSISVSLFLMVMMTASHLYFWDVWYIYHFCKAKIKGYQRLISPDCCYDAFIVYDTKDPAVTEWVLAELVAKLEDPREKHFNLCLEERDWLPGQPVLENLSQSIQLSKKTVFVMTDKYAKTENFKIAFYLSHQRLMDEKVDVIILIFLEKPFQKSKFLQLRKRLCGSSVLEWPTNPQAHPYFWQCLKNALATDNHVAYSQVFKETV

Row | Structure (SMILES) | TLR7 (% of Compound No. 63-00 EC50 Value) (TLR7) | EC50 (TLR7) | fold loss of TLR7 agonist potency compared to Compound No. 63-00 (IMDQ) (TLR7) | EC50 (TLR8) | fold increase of TLR8 agonist potency compared to Compound No. 63-00 (IMDQ) (TLR8) | TLR8 (% of Compound No. 63-00 EC50 Value) (TLR8) | other results
1 | CCCCc1nc2c(N)nc3ccccc3c2n1Cc1ccc(CN)cc1 [Compound No. 63-00, 1-(4-(aminomethyl)benzyl)-2-butyl-1H-imidazo[4,5-c]quinolin-4-amine, reference compound] | 100% |  |  |  |  |  | serum IL-6 (serum IL-6 and IL-12p40; 3 hours): 772 ± 141 pg/mL; serum IL-12p40 (serum IL-6 and IL-12p40; 3 hours): 139,767±31,024 pg/mL; serum IL-6 (serum IL-6 and IL-12p40; 6 hours): 160 ± 19 pg/mL; serum IL-12p40 (serum IL-6 and IL-12p40; 6 hours): 142,359±22,350 pg/mL; serum IL-6 (serum IL-6 and IL-12p40; 24 hours): 32 ± 2 pg/mL; serum IL-12p40 (serum IL-6 and IL-12p40; 24 hours): 7,796±1,545 pg/mL; tumor growth inhibition in the injected tumor (right flank) compared to the anti-PD-1 treatment alone (CT26 colon carcinoma [1]): greater tumor growth inhibition; tumor growth inhibition in the distal tumor (left flank) compared to the anti-PD-1 treatment alone (CT26 colon carcinoma [1]): trend towards greater tumor growth inhibition; injected tumor growth inhibition, difference from the anti-PD-1 treatment control at day 29 (CT26 colon carcinoma [1]): significantly different
2 | CCCCCNCc1ccc(Cn2c(CCCC)nc3c(N)nc4ccccc4c32)cc1 [Compound No. 63-17, 2-butyl-1-(4-((pentylamino)methyl)benzyl)-1H-imidazo[4,5-c]quinolin-4-amine] |  | 2 nM | 2 fold | 104 nM |  |  | serum IL-6 (serum IL-6 and IL-12p40; 3 hours): 853 ± 539 pg/mL; serum IL-12p40 (serum IL-6 and IL-12p40; 3 hours): 84,731±32,530 pg/mL; serum IL-6 (serum IL-6 and IL-12p40; 6 hours): 414 ± 105 pg/mL; serum IL-12p40 (serum IL-6 and IL-12p40; 6 hours): 258,645±19,982 pg/mL; serum IL-6 (serum IL-6 and IL-12p40; 24 hours): 33 ± 4 pg/mL; serum IL-12p40 (serum IL-6 and IL-12p40; 24 hours): 19,546±2,116 pg/mL
3 | CCCCCCNCc1ccc(Cn2c(CCCC)nc3c(N)nc4ccccc4c32)cc1 [Compound No. 63-18, 2-butyl-1-(4-((hexylamino)methyl)benzyl)-1H-imidazo[4,5-c]quinolin-4-amine] |  | 15 nM |  | 213 nM | slightly improved |  | CT26 tumor growth control compared to the vehicle control (CT26 colon carcinoma [2]): robust CT26 tumor growth control
4 | CCCCc1nc2c(N)nc3ccccc3c2n1Cc1ccc(CNCCC2CC2)cc1 [Compound No. 63-33, 2-butyl-1-(4-(((2-cyclopropylethyl)amino)methyl)benzyl)-1H-imidazo[4,5-c]quinolin-4-amine] | 290% | 4 nM | 4 fold | 75 nM | 2.9 fold | 41% | CT26 tumor growth control compared to the vehicle control (CT26 colon carcinoma [2]): robust CT26 tumor growth control; tumor growth inhibition in the injected tumor (right flank) compared to the anti-PD-1 treatment alone (CT26 colon carcinoma [1]): greater tumor growth inhibition; tumor growth inhibition in the distal tumor (left flank) compared to the anti-PD-1 treatment alone (CT26 colon carcinoma [1]): trend towards greater tumor growth inhibition; injected tumor growth inhibition, difference from the anti-PD-1 treatment control at day 29 (CT26 colon carcinoma [1]): significantly different
5 | CCCCc1nc2c(N)nc3ccccc3c2n1Cc1ccc(CNCCCC2CC2)cc1 [Compound No. 63-43, 2-butyl-1-(4-(((3-cyclopropylpropyl)amino)methyl)benzyl)-1H-imidazo[4,5-c]quinolin-4-amine] | 440% |  |  |  |  | 77% | 
6 | CCCCc1nc2c(N)nc3ccccc3c2n1Cc1ccc(CNCC2CCC2)cc1 [Compound No. 63-44, 2-butyl-1-(4-(((cyclobutylmethyl)amino)methyl)benzyl)-1H-imidazo[4,5-c]quinolin-4-amine] | 120% |  | 1.2 fold |  | 5.9 fold | 17% | 
7 | CCCCc1nc2c(N)nc3ccccc3c2n1Cc1ccc(CNCC2(C)CCC2)cc1 [Compound No. 63-45, 2-butyl-1-(4-((((1-methylcyclobutyl)methyl)amino)methyl)benzyl)-1H-imidazo[4,5-c]quinoline-4-amine] | 190% |  | 1.9 fold |  | 7.7 fold | 13% | 
8 | CCCCc1nc2c(N)nc3ccccc3c2n1Cc1ccc(CNCC2CC(C)C2)cc1 (stereo not shown) [Compound No. 63-46, 2-butyl-1-(4-((((3-methylcyclobutyl)methyl)amino)methyl)benzyl)-1H-imidazo[4,5-c]quinolin-4-amine] | 400% |  |  |  |  | 39% | 
9 | CCCCc1nc2c(N)nc3ccccc3c2n1Cc1ccc(CNCC(C)(C)C2CCC2)cc1 [Compound No. 63-47, 2-butyl-1-(4-(((2-cyclobutyl-2-methylpropyl)amino)methyl)benzyl)-1H-imidazo[4,5-c]quinolin-4-amine] | 900% |  | 9.0 fold |  | slightly improved to slightly inferior | 108% | 
